Data as given in patent US10597696B2, “Detection of Niemann-Pick disease comprising detection of lysozyme and cathepsins” (UNIVERSITY OF NOTRE DAME DU LAC, priority 2013, dated 2020).
“Also recorded” adds a separate entry of the source.

Columns and labels:
Npc1^nih mice = test: Onset of symptoms and survival of HPβCD-treated Npc1^nih mice; format: in vivo, mouse; details: weekly 4000 mg/Kg from P21
Method: (§1) Starting at P21 and once a week thereafter, Npc1^nih and Npc1^nmf164 mice were injected i.p with 20% 2-hydroxypropyl-beta-cyclodextrin (HPβCD, 4000 mg/Kg) prepared in 0.2% DMSO and 0.9% saline. Control mice received 0.2% DMSO in 0.9% saline. Blood was collected either via cheek bleed or terminal heart bleed from mice in EDTA tubes (BD Biosciences, San Jose, Calif., USA). Plasma was separated by centrifugation at 2500 rpm for 15 min and stored at −70° C. until used.
To examine time points of advanced disease, we returned to the shorter, Npc1^nih model. This model typically manifests phenotypic symptoms (weight loss, gait, tremor etc.) from ˜50-55 days and survives up to ˜80-84 days (FIG. 18A). […] We therefore treated Npc1^−/− mice with HPβCD or vehicle control (0.2% DMSO in 0.9% saline) with once a week drug injections (4000 mg/Kg) starting at age P21. […] As reported earlier, the plasma lysozyme activity of vehicle treated Npc1^−/− mice was elevated on average 2-fold in early symptomatic (50-60 days) animals (FIG. 18B) and remained elevated at the late symptomatic stage (70 days) compared to age matched controls (FIG. 18C).

[1] = test system: Npc1^nmf164 homozygous mutant mice; test: Plasma lysozyme activity in HPβCD-treated Npc1^nmf164 mice; format: in vivo, mouse; details: once a week i.p. from age 21-27 days, plasma at 50-55 days, vs vehicle/untreated
[2] = test system: Npc1^nih Npc1^−/− mouse brain; test: qPCR of cathepsins and inflammatory markers in brain after HPβCD; format: in vivo
Text: In mice, formalin fixed paraffin embedded tissue was sectioned (4-5 μm) and total RNA was isolated using RNeasy FFPE kit (Qiagen, Germantown, Md., USA) which included treatment with DNAse. Frozen human liver and cerebellum from 4 NPC patients and 4 age-, gender- and ethnicity-matched controls were obtained from the NICHD Brain and Tissue Bank for Developmental Disorders (University of Maryland, Baltimore, Md., USA), as approved by the Institutional Review Board (IRB), of the University of Notre Dame, Ind., USA (FWA 00002462). Total RNA was isolated using RNeasy kit (Qiagen, Germantown, Md., USA). Eluted RNA was further digested with RNase free DNaseI and re-purified using RNeasy column. The quality of RNA was checked using Bioanalyzer chip (Agilent Technologies, Santa Clara, Calif., USA) and quantity was determined using Nanodrop 2000 (Thermo Fisher Scientific, Waltham, Mass., USA). Quantitative PCR (qPCR) was performed using Power SYBR Green RNA-to-CT 1-Step Kit and an ABI Prism 7500 Fast real-time PCR system (Applied Biosystems, Grand Island, USA). Reaction was set in 20 μl using 100 nM primers and 5-100 ng total RNA as template. The thermal cycling parameters were as follows: step 1, 48° C. for 30 min; step 2, 95° C. for 10 min; step 3, 95° C. for 15 sec ° C.; step 4, 60° C. for 15 sec. Step 3-4 was repeated for 40 cycles followed by melt curve analysis. Specific amplification was validated by analysis of template titration, melt curves and agarose gel electrophoresis. In both mouse and human tissues, the mRNA levels were normalized to the housekeeping gene, Gapdh (Glyceraldehyde 3-phosphate dehydrogenase). Fold change was calculated by relative standard curve method after correcting PCR efficiency. In mice, the fold change in expression levels of different genes in Npc1^−/− was calculated relative to average levels of expression in Npc1^+/− mice. In human tissues, fold change in transcript expression in NPC liver and cerebellum was expressed relative to average expression in age-matched controls. Starting at P21 and once a week thereafter, Npc1^nih and Npc1^nmf164 mice were injected i.p with 20% 2-hydroxypropyl-beta-cyclodextrin (HPβCD, 4000 mg/Kg) prepared in 0.2% DMSO and 0.9% saline. Control mice received 0.2% DMSO in 0.9% saline. Blood was collected either via cheek bleed or terminal heart bleed from mice in EDTA tubes (BD Biosciences, San Jose, Calif., USA). Plasma was separated by centrifugation at 2500 rpm for 15 min and stored at −70° C. until used.

Npc1^nih Npc1^−/− mice = test: Plasma 24(S)-hydroxy cholesterol ELISA after HPβCD; format: in vivo, mouse
Method: as §1, with “Plasma 24-HC concentration was determined using ELISA kit from Enzo Life Sciences (Farmingdale, N.Y., USA) according to the manufacturer's instructions. Plasma was diluted to 1:1000 in supplied buffer and measurements were done in triplicate wells. Pure 24-HC (supplied with kit) was used to prepare the standard curve. 24-HC concentration was normalized to plasma protein content. Starting” for “Starting”

## CC(O)COC[C@H]1O[C@@H]2O[C@H]3[C@H](O)[C@@H](O)[C@@H](O[C@H]4[C@H](O)[C@@H](O)[C@@H](O[C@H]5[C@H](O)[C@@H](O)[C@@H](O[C@H]6[C@H](O)[C@@H](O)[C@@H](O[C@H]7[C@H](O)[C@@H](O)[C@@H](O[C@H]8[C@H](O)[C@@H](O)[C@@H](O[C@H]1[C@H](O)[C@H]2O)O[C@@H]8COCC(C)O)O[C@@H]7COCC(C)O)O[C@@H]6COCC(C)O)O[C@@H]5COCC(C)O)O[C@@H]4COCC(C)O)O[C@@H]3COCC(C)O (stereo partly drawn) [HPβCD, 2-hydroxypropyl-beta-cyclodextrin]
Npc1^nih mice; untreated up to ~80-84 days
  survival: 105 to 112 days
Npc1^nih mice; untreated ~49-56 days
  onset of symptoms: 70 to 80 days
[1]
  plasma lysozyme activity: significantly reduced; also recorded: rendered comparable to untreated wild type animals
[1]; listed as H∪CD
  plasma lysozyme activity: decrease
[2]; HPβCD-treated Npc1^−/−, late stages, untreated ~81-fold
  Lyz1 expression in brain, fold elevation: ~28 fold
[2]; HPβCD-treated Npc1^−/−, untreated ~9-fold
  Gfap transcript in brain: slightly reduced
[2]; HPβCD-treated Npc1^−/−, untreated ~24-fold
  Cd68 transcript in brain relative to Npc1^+/− mice: ~6 fold
[2]; HPβCD-treated Npc1^−/−, untreated ~44-fold
  Mip-1α transcripts in brain, fold increase: ~27 fold
[2]; NPC mouse brain, qPCR
  transcripts of neuron specific 24-hydroxylase: no effect
[2]; Npc1^−/− mice, qPCR
  expression of Ctsb in brain: returned to normal levels
  expression of Ctsd in brain: partial reduction
  expression of Ctss in brain: partial reduction
Npc1^nih Npc1^−/− mice
  24(S)-HC level in plasma: largely unaffected
